Experimental data: patent publication US10174033B2, “N6-substituted adenosine derivatives and N6-substituted adenine derivatives and uses thereof” (INSTITUTE OF MATERIA MEDICA, CHINESE ACADEMY OF MEDICAL …, priority 2009, dated 2019)

Key:
mice = assay: Sub-threshold hypnotic dose sodium pentobarbital induced sleeping test; assay type: in vivo; details: intraperitoneal, 30 min before sub-threshold sodium pentobarbital (22 mg/kg ip)
Method: N^6-substituted adenosine derivatives and/or N^6-substituted adenine derivatives potentiated sodium pentobarbital-induced sleep in mice
Name of Experiment: Sub-threshold hypnotic dose sodium pentobarbital induced sleeping test
Method of Experiment: Mice (n=7-10) were pretreated with test compound or vehicle, after 30 min, a maximal sub-threshold hypnotic dose of sodium pentobarbital (22 mg/kg) was given intraperitoneally (ip). (On some condition, the sub-threshold dosage of sodium pentobarbital should be optimized to the maximum dose, at which the rate of sleep onset of vehicle group is less than 10%). […] Following sodium pentobarbital injection, each mouse was observed 15 min for onset of sleep. The percentage of sleep onset was calculated as: (number of animals falling asleep/total number of animals)×100%.

male ICR-mice = assay: Potentiation of sodium pentobarbital sleeping time test; assay type: in vivo
Method: Effects of N^6-substituted adenosine derivatives and/or N^6-substituted adenine derivatives on sodium pentobarbital-induced sleeping time in mice.
Name of Experiment: Potentiation of sodium pentobarbital sleeping time test.
Method of Experiment: Groups of 8-10 male ICR-mice with an average weight of 18-22 g were used. They were dosed orally or i.p. with the test compound or the vehicle. Thirty min after i.p. injection or 60 min after oral dosing 38 mg/kg sodium pentobarbital were injected intravenously. The latency and duration of sleep (loss of righting reflex) were recorded. The percentage of prolongation of sleeping time was calculated as: [(sleeping time of experimental group)−(sleeping time of control group)]/(sleeping time of control group)×100%.

[1] = bioassay-guided fractionation, sedative and hypnotic effects; details: compound isolated from Gastrodia elata and Gymnadenia conopsea, result in words
PC12 cell = details: result in words; cited from earlier work
adenosine A2A receptor = adenosine A2A receptor (Homo sapiens, UniProt P29274); details: result in words; cited from earlier work
Chain of adenosine A2A receptor (P29274 whole entry): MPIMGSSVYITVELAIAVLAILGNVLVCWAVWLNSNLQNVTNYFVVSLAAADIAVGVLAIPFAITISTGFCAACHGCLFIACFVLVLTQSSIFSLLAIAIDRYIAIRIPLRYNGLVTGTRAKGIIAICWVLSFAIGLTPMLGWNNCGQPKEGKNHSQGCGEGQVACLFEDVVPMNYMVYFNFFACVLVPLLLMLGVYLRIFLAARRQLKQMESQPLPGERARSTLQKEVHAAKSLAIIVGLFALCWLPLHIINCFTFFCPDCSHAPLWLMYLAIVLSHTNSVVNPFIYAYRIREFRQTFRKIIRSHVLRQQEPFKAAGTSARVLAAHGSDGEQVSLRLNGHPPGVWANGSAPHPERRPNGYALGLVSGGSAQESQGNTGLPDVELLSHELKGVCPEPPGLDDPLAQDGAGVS

[2] = oral, 4 mg/kg, 38 mg/kg sodium pentobarbital 60 min later
[3] = intraperitoneal, 5 mg/kg, 38 mg/kg sodium pentobarbital 30 min later
[4] = oral, 5 mg/kg, 38 mg/kg sodium pentobarbital 60 min later
[5] = intraperitoneal, 1 mg/kg, 38 mg/kg sodium pentobarbital 30 min later

Structure (SMILES)	Sleep rate (%) (mice; 1 mg/kg)	Sleep rate (%) (mice; 5 mg/kg)	Sleep prolonging rate (%) (male ICR-mice; [3])	other results
O=C(O)[C@@H](CO)Nc1ncnc2c1ncn2[C@@H]1O[C@H](CO)C(O)C1O (stereo partly shown) [Example 125, N-(6-adenosine)-(D)-serine]				Sleep rate (%) (mice; 5 mg/kg, listed as N-(6-adenosine)-(D)-serine): 14%; Sleep prolonging rate (%) (male ICR-mice; intraperitoneal, 5 mg/kg, 38 mg/kg sodium pentobarbital 30 min later, listed as N-(6-adenosine)-(D)-serine): 0%
COc1cc(CNc2ncnc3c2ncn3[C@@H]2O[C@H](CO)[C@@H](O)[C@H]2O)ccc1O [Example 23, N^6-(3-methoxy-4-hydroxybenzyl)-adenosine]	100			Sleep prolonging rate (%) (male ICR-mice; [2]): 87%
OC[C@H]1O[C@@H](n2cnc3c(NCc4ccc5c(c4)OCO5)ncnc32)[C@H](O)[C@@H]1O [Example 31, N^6-(3,4-methylenedioxybenzyl)-adenosine]		100	175	
O=C(O)[C@@H](Cc1ccccc1)Nc1ncnc2c1ncn2[C@@H]1O[C@H](CO)C(O)C1O (stereo partly shown) [Example 103, N-(6-adenosine)-(D)-phenylalanine]		17	19	
OC[C@H]1O[C@@H](n2cnc3c(NCCc4c[nH]c5ccccc45)ncnc32)[C@H](O)[C@@H]1O [Example 44, N^6-[(1H-Indole-3-yl)-ethyl]-adenosine]		86	147	Sleep prolonging rate (%) (male ICR-mice; [4]): 78%
OC[C@H]1O[C@@H](n2cnc3c(NCc4ccc(O)cc4)ncnc32)[C@H](O)[C@@H]1O [Example 2, N^6-(p-hydroxybenzyl)-adenosine]	63			Sleep prolonging rate (%) (male ICR-mice; oral, 1 mg/kg, 38 mg/kg sodium pentobarbital 60 min later): 90%; sedative and hypnotic effects [1]: significant sedative and hypnotic effects; preventing PC12 cell apoptosis (PC12 cell): effective in preventing PC12 cell apoptosis; binding to adenosine A2A receptor (adenosine A2A receptor): binding to adenosine A2A receptor
O=C(O)[C@@H](Cc1ccc(O)cc1)Nc1ncnc2c1ncn2[C@@H]1O[C@H](CO)C(O)C1O (stereo partly shown) [Example 106, N-(6-adenosine)-(D)-tyrosine]		17	82	
O=C(O)[C@@H](CO)Nc1ncnc2c1ncn2[C@@H]1O[C@H](CO)C(O)C1O (stereo partly shown) [Example 124, N-(6-adenosine)-(L)-serine]				Sleep rate (%) (mice; 5 mg/kg, listed as N-(6-adenosine)-(L)-serine): 29%; Sleep prolonging rate (%) (male ICR-mice; intraperitoneal, 5 mg/kg, 38 mg/kg sodium pentobarbital 30 min later, listed as N-(6-adenosine)-(L)-serine): 15%
OC[C@H]1O[C@@H](n2cnc3c(NCc4ccco4)ncnc32)[C@H](O)[C@@H]1O [Example 17, N^6-(2-furanylmethyl)-adenosine]		71		
COc1ccc(CNc2ncnc3c2ncn3[C@@H]2O[C@H](CO)[C@@H](O)[C@H]2O)cc1OC [Example 30, N^6-(3,4-dimethoxybenzyl)-adenosine]	100			
O=C(O)[C@@H](Cc1c[nH]c2ccccc12)Nc1ncnc2c1ncn2[C@@H]1O[C@H](CO)C(O)C1O (stereo partly shown) [Example 111, N-(6-adenosine)-(L)-tryptophan]		14	69	
OC[C@H]1O[C@@H](n2cnc3c(NCc4ccc(F)cc4)ncnc32)[C@H](O)[C@@H]1O [Example 11, N^6-(p-fluorobenzyl)-adenosine]		71	73	
Cc1ccc(-c2nc3ccc(C)cn3c2CC(=O)N(C)C)cc1 [zolpidem, reference compound]				Sleep rate (%) (mice; 2 mg/kg): 75%
OC[C@H]1O[C@@H](n2cnc3c(NCc4ccc(C(F)(F)F)cc4)ncnc32)[C@H](O)[C@@H]1O [Example 13, N^6-(p-trifluoromethylbenzyl)-adenosine]		57	23	
O=[N+]([O-])c1ccc(CNc2ncnc3c2ncn3[C@@H]2O[C@H](CO)[C@@H](O)[C@H]2O)cc1 [Example 8, N^6-(p-nitrobenzyl)-adenosine]	63			Sleep prolonging rate (%) (male ICR-mice; [5]): 16%; Sleep prolonging rate (%) (male ICR-mice; [4]): 29%
COc1ccc(CCNc2ncnc3c2ncn3[C@@H]2O[C@H](CO)[C@@H](O)[C@H]2O)cc1O [Example 40, N^6-[(3-hydroxy-4-methoxyphenyl)-ethyl]-adenosine]	50			Sleep prolonging rate (%) (male ICR-mice; [5]): 1%
Nc1cccc(CNc2ncnc3c2ncn3[C@@H]2O[C@H](CO)[C@@H](O)[C@H]2O)c1 [Example 7, N^6-(m-aminobenzyl)-adenosine]	100			Sleep prolonging rate (%) (male ICR-mice; [5]): 101%; Sleep prolonging rate (%) (male ICR-mice; [4]): 50%

Structure (SMILES)	Sleep rate (%) (mice; 1 mg/kg)	Sleep rate (%) (mice; 5 mg/kg)	Sleep prolonging rate (%) (male ICR-mice; [3])	other results
COc1cc(CNc2ncnc3c2ncn3[C@@H]2O[C@H](CO)C(O)C2O)cc(OC)c1O (stereo partly shown) [Example 36, N^6-(4-hydroxy-3,5-dimethxoybenzyl)-adenosine]		86	336	Sleep prolonging rate (%) (male ICR-mice; [4]): 121%
COc1cc(CNc2ncnc3nc[nH]c23)ccc1O [N^6-(3-methoxy-4-hydroxybenzyl)-adenine]	38			
COc1ccc(CNc2ncnc3c2ncn3[C@@H]2O[C@H](CO)[C@@H](O)[C@H]2O)cc1O [Example 29, N^6-(4-methoxy-3-hydroxybenzyl)-adenosine]	86			
OC[C@H]1O[C@@H](n2cnc3c(NCc4ccc(O)c(O)c4)ncnc32)[C@H](O)[C@@H]1O [Example 22, N^6-(3,4-dihydroxybenzyl)-adenosine]	87	100	32	Sleep prolonging rate (%) (male ICR-mice; [2]): 74%
O=C(O)C(Cc1c[nH]c2ccc(O)cc12)Nc1ncnc2c1ncn2[C@@H]1O[C@H](CO)C(O)C1O (stereo partly shown) [Example 115, N-(6-adenosine)-5-hydroxy tryptophan]		17	60	
OC[C@H]1O[C@@H](n2cnc3c(NCc4ccccc4O)ncnc32)[C@H](O)[C@@H]1O [Example 3, N^6-(o-hydroxybenzyl)-adenosine]	88			Sleep prolonging rate (%) (male ICR-mice; [4]): 92%
COc1ccccc1CNc1ncnc2c1ncn2[C@@H]1O[C@H](CO)[C@@H](O)[C@H]1O [N^6-(o-methoxybenzyl)-adenosine]	100			
O=[N+]([O-])c1ccccc1CNc1ncnc2c1ncn2[C@@H]1O[C@H](CO)[C@@H](O)[C@H]1O [Example 9, N^6-(o-nitrobenzyl)-adenosine]	100			
CC(Nc1ncnc2c1ncn2[C@@H]1O[C@H](CO)[C@@H](O)[C@H]1O)c1ccccc1 (mixture of isomers) [Example 45, N^6-[(±)-1-(phenyl)-ethyl]-adenosine]		100	254	Sleep prolonging rate (%) (male ICR-mice; [4]): 201%
OC[C@H]1O[C@@H](n2cnc3c(NCCc4c[nH]cn4)ncnc32)[C@H](O)[C@@H]1O [Example 43, N^6-[(1H-imidazole-4-yl)-ethyl]-adenosine]	88			Sleep prolonging rate (%) (male ICR-mice; [5]): 43%
COc1cc(CCNc2ncnc3c2ncn3[C@@H]2O[C@H](CO)[C@@H](O)[C@H]2O)ccc1O [Example 39, N^6-[(3-methoxy-4-hydroxyphenyl)-ethyl]-adenosine]	88			Sleep prolonging rate (%) (male ICR-mice; [5]): 13%
OC[C@H]1O[C@@H](n2cnc3c(NCc4ccc(OC(F)(F)F)cc4)ncnc32)[C@H](O)[C@@H]1O [Example 12, N^6-(p-trifluoromethoxybenzyl)-adenosine]		43	44	
O=C(O)[C@H](Cc1ccccc1)Nc1ncnc2c1ncn2[C@@H]1O[C@H](CO)C(O)C1O (stereo partly shown) [Example 102, N-(6-adenosine)-(L)-phenylalanine]			44	
CCCC(=O)OC[C@H]1O[C@@H](n2cnc3c(NCc4ccc(OC(=O)CCC)c(OC)c4)ncnc32)[C@@H](O)C1O (stereo partly shown) [N^6-(3-methoxy-4-butanoyloxy-benzyl)-adenosine-5′-butyrate]				Sleep prolonging rate (%) (male ICR-mice; [4]): 11%
OC[C@H]1O[C@@H](n2cnc3c(N4CCN(c5ccccc5)CC4)ncnc32)C(O)C1O (stereo partly shown) [Example 16]		50	34	
CC[C@@H](Nc1ncnc2[nH]cnc12)c1ccccc1 [Example 144, N^6-[(R)-1-(phenyl)-propyl]-adenine]				Sleep prolonging rate (%) (male ICR-mice; [4]): 42%
Cc1ccc(CNc2ncnc3c2ncn3[C@@H]2O[C@H](CO)[C@@H](O)[C@H]2O)o1 [Example 18, N^6-(5-methyl-2-furanylmethyl)-adenosine]			7	
